Key:
[1] = test system: mouse epiblast stem cell (EpiSC)-derived OPCs; test: Primary in vitro phenotypic screen of OPCs (MBP process length and intensity, high content imaging); format: cell-based; conditions: 5 μM, 72 h, 727 drugs
Method: For the primary screen, OPCs were treated with vehicle alone (0.05% (v/v)DMSO) as a negative control, thyroid hormone (a known OPC differentiation inducer) as a positive control, or drug dissolved in DMSO at a concentration of 5 μM. After 72 h, cells were fixed and labeled with antibodies to myelin basic protein (MBP) and the length and intensity of MBP labeled oligodendrocyte processes measured (FIG. 1A). These features were reliable indicators of alteration in cellular phenotype, as indicated by consistency and high signal to background ratio of positive and vehicle controls across all screening plates (FIG. 5D-G). […] On the basis of this analysis, we identified the 22 drugs that enhanced oligodendrocyte formation greater than five standard deviations above DMSO treatment and outperformed thyroid hormone in the measured parameters (FIG. 1B).
EpiSC-derived OPCs were seeded onto poly-D-lysine 96-well Viewplate or CellCarrier plates (PerkinElmer) coated with laminin (Sigma, L2020; 10 μgml^−1) using electronic multichannel pipetors. […] All plates for the primary screen were processed and analyzed simultaneously to eliminate variability.
For the 5 μM in vitro screen, stained plates were imaged on the Opera confocal imaging system (PerkinElmer) and a set of 24×10 fields were collected from each well, resulting in an average of 10,000 cells being scored per well. […]

ERK1/2 = test: Western blot of ERK1/2 phosphorylation in OPCs; format: cell-based, mouse; conditions: for induction of ERK1/2 phosphorylation in OPCs: OPCs treated for 1 h
Method: EpiSC-derived OPCs were seeded into poly-Lornithine/laminin coated six-well plates and allowed to attach for 2 h in DMEM/F12 without additional factors. Cells were treated with indicated inhibitors or DMSO for 1 h-SCH772984 (ChemieTek, […]), SB590885 (Tocris, 10 nM), LY294002 (Tocris, 10 μM), and PD0325901 (Stemgent, 1 μM). Cells were then stimulated with drug or FGF2 (R&DSystems; 20 ng ml^−1) for 1 h and then lysed in 200 μL RIPA buffer (0.15 M NaCl, 0.05M Tris, pH=8.0, 1 mM EDTA, 1% Triton X-100, 0.1% SDS, 10% glycerol, HALT protease and phosphatase inhibitor (Thermo Fisher) added just before use) and incubated on ice for 20 min. Lysates were centrifuged at 4° C. and supernatant collected. Protein concentrations were determined by Pierce BCA protein assay kit (Thermo Fisher). Equal amounts of protein were resolved in a reduced manner on NuPAGE 4-12% Bis-Tris gels (Life Technologies) and transferred onto PVDF membranes (Life Technologies). Blots were blocked in either 5% BSA (phosphoprotein) or 5% milk (non phosphoprotein). Primary antibodies were all from the same vendor (Cell Signaling) and included phospho-Erk1/2 (4370S, clone D13.14.4E; 1:2,000), ERK1/2 (9107S, clone 3A7; 1:2,000), phospho-glucocorticoid receptor (4161S; 1:1,000), and glucocorticoid receptor (12041, clone D6H2L; 1:1,000) followed by incubation with HRP-conjugated secondary antibodies and chemiluminescent enhancement by West Pico substrate (Thermo Fisher).

MOG35-55 EAE mouse model = test: MOG35-55 chronic progressive EAE model
Method: Immunohistochemistry was performed as previously described. In short, tissue sections or whole slices were washed three times in PBS, blocked in PBS containing Triton X-100 (0.1%) and normal donkey serum (NDS, 2% for sections and 10% for cerebellar slices) and incubated with primary antibody overnight. For MBP immunohistochemistry, the primary antibody solution consisted of 2% NDS, 2% bovine serum albumin, and 0.1% saponin. For all other antibodies, the primary antibody solution consisted of 2% NDS and 0.1% Triton X-100. Primary antibodies used included rat anti-MBP (Abcam, ab7349; 1:100), mouse anti-APC CC1 clone (Millipore, MABC200; 1:500), and rabbit anti-IBA1 (Wako Chemicals, 019-19741; 1:1,000). The tissue was then washed in PBS and incubated in secondary antibodies for […]. Secondary detection was performed with Alexa Fluor-conjugated secondary antibodies (1:500) for 1 h. Luxol fast blue staining was performed as previously described.
Samples were processed as previously described. In short, samples were osmicated, stained en bloc with uranyl acetate, and embedded in EMbed 812, an Epon-812 substitute (EMS). Sections (1 μm) were cut and stained with toluidine blue and visualized on a light microscope (Leica DM5500B). Additional thin sections were cut, carbon coated and imaged either on a JEOL JEM-1200-EX electron microscope or a T12 electron microscope (FEI).
EAE was induced by immunizing 10-week-old C57BL/6 female mice with […] injection of […] complete Freund's adjuvant emulsion (Hooke Laboratories). One hour after immunization, mice were given 100 ng of pertussis toxin by 100 μl intraperitoneal injection. A second dose of pertussis toxin was administered the next day. EAE onset was monitored daily and scored using a clinical scale where 0 represented no abnormality; 1, limp tail; 2, limp tail and hind limb weakness; 3, hind limb paralysis; 4, hind limb paralysis and forelimb weakness; and 5, moribund. […] Once mice reached peak of disease ˜day 15; clinical score=3) they were randomized into treatment groups, and drug or vehicle (DMSO in saline) was administered intraperitoneally daily for 10 days (n=12-16 mice per group). […] Experimenters were blinded to the identity of the treatments and animals were scored daily. Cumulative disease scores for each animal were calculated during the treatment period, and a two-tailed t-test compared drug—with vehicle-treated groups. The extent of recovery for each animal was calculated as the difference between the peak disease score and the score at the end of each experiment, and a two-tailed t-test was used to compare each treatment with vehicle. External validation of MOG35-55 EAE experiments (n=12 mice per group) was performed at Hooke Laboratories with experimenters blinded to the identity of the substances.

mouse OPCs = test: OPC differentiation into MBP+ oligodendrocytes; format: cell-based; conditions: 72 h, seven doses 0.01-6.7 μM
Method: EpiSC-derived OPCs were seeded onto poly-D-lysine 96-well Viewplate or CellCarrier plates (PerkinElmer) coated with laminin (Sigma, L2020; 10 μgml^−1) using electronic multichannel pipetors. For the primary screen, 30,000 cells were seeded per well in screening medium (DMEM/F12 supplemented with N2 (R&D Systems), B-27 (Life Technologies), neurotrophin 3 (R&D Systems; 10 ng ml^−1), cAMP (Sigma; 50 μM), IGF-1 (R&D Systems; 100 ng ml^−1), noggin (R&D Systems; 100 ngml^−1)) and allowed to attach for 2 h before addition of drug. NIH Clinical Collection I and II drugs were added to assay plates with 0.1 ml pin replicators (Molecular Devices, Genetix; X5051), resulting in a final primary screening concentration of 5 μM. Thyroid-hormone-positive controls and DMSO vehicle controls were included in each assay plate. Cells were incubated under standard conditions (37° C., 5% CO2) for 3 days and fixed with 4% paraformaldehyde (PFA) in phosphate buffered saline (PBS). Fixed plates were permeabilized with 0.1% Triton X-100 and blocked with 10% donkey serum (v/v) in PBS for 2 h. Cells were labelled with MBP antibodies (Abcam, ab7349; 1:100) for 1 h at room temperature (˜22° C.) followed by detection with Alexa Fluorconjugated secondary antibodies (1:500) for 45 min. Nuclei were visualized by DAPI staining (Sigma; 1 μgml^−). All plates for the primary screen were processed and analyzed simultaneously to eliminate variability.
For the 5 μM in vitro screen, stained plates were imaged on the Opera confocal imaging system (PerkinElmer) and a set of 24×10 fields were collected from each well, resulting in an average of 10,000 cells being scored per well. For the dose-response (6.7 μM, 5 μM, 3.3 μM, 1.7 μM, 666 nM, 500 nM, and 333 nM) in vitro assays, plates were imaged on the Operetta High Content Imaging and Analysis system (PerkinElmer) and a set of 14×20 fields captured from each well resulting in an average of 3,300 cells being scored per well. […] Each traced nucleus region was then expanded by 50% and cross-referenced with the mature myelin protein (MBP or PLP1) stain to identify oligodendrocyte nuclei, and from this the percentage of oligodendrocytes was calculated. Processes emanating from oligodendrocyte nuclei were identified using the CSIRO2 analysis module within a custom Acapella script. Maximum mean process length (denoted ‘process length’) and mean process intensity (denoted ‘process intensity’) were generated on a per well basis. For the 5 μM in vitro screen, values were calculated and normalized to 100 for thyroid hormone (positive control)-treated wells and to 0 for DMSO(vehicle)-treated wells, on a per plate basis.

COc1cc2c(cc1OC)C(=O)C(CC1CCN(Cc3ccccc3)CC1)C2 (centres unmarked) [Donepezil]
hit status / activity in the primary screen (MBP process length and intensity) [1]: identified in the primary screen

O=C(NOC[C@H](O)CO)c1ccc(F)c(F)c1Nc1ccc(I)cc1F [PD0325901]
block of miconazole-induced ERK1/2 phosphorylation (ERK1/2; OPCs, inhibitor 1 μM for 1 h, then miconazole): blocked the ability of miconazole to induce ERK1/2 phosphorylation

CN1[C@@H]2CC[C@H]1C[C@@H](OC(c1ccccc1)c1ccccc1)C2 [benztropine]
hit status / activity in the primary screen (MBP process length and intensity) [1]: one of the top 22 drugs
induction of ERK1/2 phosphorylation in OPCs (ERK1/2): did not induce ERK1/2 phosphorylation
areas of myelin disruption in the white matter (luxol fast blue, MBP immunohistochemistry) (MOG35-55 EAE mouse model; cervical spinal cords): decrease in areas of myelin disruption in the white matter
functional improvement (disease score) (MOG35-55 EAE mouse model; daily i.p. for 10 days from peak of disease, miconazole 10 mg/kg, clobetasol 2 mg/kg, benztropine 10 mg/kg): functional improvement, but to a lesser extent than miconazole and clobetasol

C[C@@H](c1ncncc1F)[C@](O)(Cn1cncn1)c1ccc(F)cc1F [voriconazole]
differentiation of OPCs into oligodendrocytes (mouse OPCs): did not promote the differentiation of OPCs into oligodendrocytes
induction of ERK1/2 phosphorylation in OPCs (ERK1/2): failed to induce changes in ERK1/2 phosphorylation

From patent US10653691B2, “Method of promoting remyelination” (Case Western Reserve University, priority 2013, dated 2020)
